Reference: the NIST ThermoML archive (doi:10.1016/j.fluid.2009.11.030)

Assay: excess molar enthalpy (molar enthalpy of mixing); xn = mol fraction of the nth substance listed
Conditions: 101.3 kPa, Liquid, Isothermal microcalorimeter

CCOC(=O)CC(=O)OCC [diethyl 1,3-propanedioate] + CCCCO
excess molar enthalpy [kcal/mol]
Conditions | 288.15 K | 298.15 K | 313.15 K | 328.15 K | 338.15 K | 348.15 K
x1 = 0.0498 | 0.123 | 0.133 | 0.146 | 0.153 | 0.156 | 0.152
x1 = 0.1085 | 0.239 | 0.254 | 0.285 | – | 0.308 | 0.308
x1 = 0.1482 | 0.2978 | 0.3164 | 0.354 | 0.3676 | 0.3853 | 0.3956
x1 = 0.1991 | 0.3619 | 0.3858 | 0.4369 | 0.4627 | 0.472 | 0.4723
x1 = 0.2499 | 0.4099 | 0.4383 | 0.4947 | 0.5249 | 0.533 | 0.5418
x1 = 0.3003 | 0.4496 | 0.4828 | 0.544 | 0.576 | 0.587 | 0.5882
x1 = 0.3501 | 0.4754 | 0.5177 | 0.5789 | 0.6128 | 0.6219 | 0.6252
x1 = 0.3988 | 0.4967 | 0.5378 | 0.6006 | 0.6315 | 0.6429 | 0.6482
x1 = 0.4501 | 0.5096 | 0.5507 | 0.6128 | 0.6424 | 0.6539 | 0.6511
x1 = 0.5 | 0.5134 | 0.5557 | 0.6104 | 0.6415 | 0.6513 | 0.6487
x1 = 0.548 | 0.51 | 0.5511 | 0.6028 | 0.6322 | 0.6379 | 0.6322
x1 = 0.5984 | 0.5005 | 0.5337 | 0.582 | 0.6047 | 0.6121 | 0.6119
x1 = 0.6512 | 0.4742 | 0.5086 | 0.5495 | 0.5705 | 0.575 | 0.5693
x1 = 0.6965 | 0.4498 | 0.4763 | 0.51 | 0.5256 | 0.5313 | 0.5239
x1 = 0.749 | 0.4037 | 0.4264 | 0.4598 | 0.4627 | 0.4625 | 0.457
x1 = 0.7985 | 0.3516 | 0.3683 | 0.3896 | 0.397 | 0.3963 | 0.3922
x1 = 0.8502 | 0.282 | 0.2949 | 0.3109 | 0.3107 | 0.3162 | 0.306
x1 = 0.8981 | 0.203 | 0.213 | 0.226 | 0.216 | 0.232 | 0.224
x1 = 0.948 | 0.109 | 0.114 | 0.123 | 0.111 | 0.127 | 0.122
